≈ marks a conversion by molar mass, not a printed value.
Columns and labels:
[1] = system: AmpC-derepressed Pseudomonas aeruginosa mutant strain (S-3028); experiment: Antibacterial activity evaluation test, MIC by CLSI broth microdilution; type: cell-based; conditions: cation-adjusted Mueller Hinton medium, 35° C., 16 to 20 hours
Description: (§1) The minimum inhibitory concentration (MIC) was measured according to the Clinical and Laboratory Standards Institute (CLSI) standard method by using the following broth microdilution method.
(§2) As bacteria, a Pseudomonas aeruginosa strain ATCC27853, an AmpC-derepressed Pseudomonas aeruginosa mutant strain (S-3028), an IMP-1-containing Pseudomonas aeruginosa strain (S-2838), a VIM-2-containing Pseudomonas aeruginosa strain (S-3779), a GES-19 and GES-20-containing Pseudomonas aeruginosa strain (S-3759), a CTX-M-15-containing Escherichia coli strain (TK-1747), a KPC-2-containing Klebsiella pneumoniae strain (Y-995), an OXA-48-containing Klebsiella pneumoniae strain (Y-1062), and an NDM-1-containing Klebsiella pneumoniae strain (Y-1007) were used. The test bacterial cells that had been cultured overnight on a Mueller Hinton agar medium were scraped off, suspended at a density equivalent to 0.5 McFarland standard, and diluted 10-fold, thereby obtaining an inoculum. A cation-adjusted Mueller Hinton medium containing a test compound was inoculated with 0.005 mL of the inoculum, and the cells were cultured at 35° C. for 16 to 20 hours. The minimum drug concentration at which the growth of bacteria was not visually observed was defined as MIC […].
(§3) An antibacterial activity evaluation test was performed in the same manner as in Test Example 1.

[2] = system: CTX-M-15-containing Escherichia coli strain (TK-1747); experiment: as above; type: cell-based; conditions: cation-adjusted Mueller Hinton medium, 35° C., 16 to 20 hours
Description: as §1, §2, §3

[3] = system: GES-19 and GES-20-containing Pseudomonas aeruginosa strain (S-3759); experiment: as above; type: cell-based; conditions: cation-adjusted Mueller Hinton medium, 35° C., 16 to 20 hours
Description: as §1, §2, §3

[4] = system: IMP-1-containing Pseudomonas aeruginosa strain (S-2838); experiment: as above; type: cell-based; conditions: cation-adjusted Mueller Hinton medium, 35° C., 16 to 20 hours
Description: as §1, §2, §3

[5] = system: KPC-2-containing Klebsiella pneumoniae strain (Y-995); experiment: as above; type: cell-based; conditions: cation-adjusted Mueller Hinton medium, 35° C., 16 to 20 hours
Description: as §1, §2, §3

[6] = system: NDM-1-containing Klebsiella pneumoniae strain (Y-1007); experiment: as above; type: cell-based; conditions: cation-adjusted Mueller Hinton medium, 35° C., 16 to 20 hours
Description: as §1, §2, §3

[7] = system: OXA-48-containing Klebsiella pneumoniae strain (Y-1062); experiment: as above; type: cell-based; conditions: cation-adjusted Mueller Hinton medium, 35° C., 16 to 20 hours
Description: as §1, §2, §3

[8] = system: Pseudomonas aeruginosa strain ATCC27853; experiment: as above; type: cell-based; conditions: cation-adjusted Mueller Hinton medium, 35° C., 16 to 20 hours
Description: as §1, §2, §3

[9] = system: VIM-2-containing Pseudomonas aeruginosa strain (S-3779); experiment: as above; type: cell-based; conditions: cation-adjusted Mueller Hinton medium, 35° C., 16 to 20 hours
Description: as §1, §2, §3

[10] = system: multidrug-resistant Pseudomonas aeruginosa strain (S-2838 strain); experiment: Test for protection against systemic infection in mouse with multidrug-resistant Pseudomonas aeruginosa; type: in vivo, ICR male SPF mice; conditions: sc, 72 h, read-out: survival rate
Description: As mice, ICR male SPF mice (4 weeks old: 10 mice per group) were used. Clinically isolated multidrug-resistant Pseudomonas aeruginosa strain (S-2838 strain) cultured overnight on a Mueller-Hinton agar plate at 37° C. was cultured on a cation-adjusted Mueller Hinton medium for 5 hours, and then diluted 20-fold with a 10% mucin/phosphate buffer, thereby preparing an inoculum. An infection was induced by intraperitoneally inoculating the mice with the inoculum at 0.5 mL (about 10^6 CFU/mouse). Each test compound was dissolved in physiological saline, and 1 hour after the infection, the compound was subcutaneously administered once to the mice at 40 mg/kg. The control group was administered with the same amount of physiological saline used as a vehicle. The number of surviving mice was recorded 3 days after the infection.
A test for protection against systemic infection in a mouse with multidrug-resistant Pseudomonas aeruginosa was performed in the same manner as in Test Example 2.

| Structure (SMILES) | responders at 40 mg/kg [10] | other results |
| --- | --- | --- |
| Nc1nc(/C(=N/OC2(C(=O)O)CCC2)C(=O)N[C@@H]2C(=O)N3C[C@@](C(=O)O)(N4CCN(NC(=O)C(=O)c5ccc(O)c(O)c5Cl)C4=O)S[C@H]23)cs1 [Example 19, (3R,5R,6R)-6-((Z)-2-(2-aminothiazol-4-yl)-2-((1-carboxycyclobutoxy)imino)acetamido)-3-(3-(2-(2-chloro-3,4-dihydroxyphenyl)-2-oxoacetamido)-2-oxoimidazolidin-1-yl)-7-oxo-4-thia-1-azabicyclo[3.2.0]heptane-3-carboxylate] | – | MIC, Pseudomonas aeruginosa S-3028 [1]: 2 µg/mL (≈ 2.66 µM); MIC, Escherichia coli TK-1747 [2]: 0.5 µg/mL (≈ 0.664 µM); MIC, Pseudomonas aeruginosa S3759 [3]: 0.25 µg/mL (≈ 0.332 µM); MIC, Pseudomonas aeruginosa S-2838 [4]: 0.25 µg/mL (≈ 0.332 µM); MIC, Klebsiella pneumoniae Y-995 [5]: 0.25 µg/mL (≈ 0.332 µM); MIC, Klebsiella pneumoniae Y-1007 [6]: < 0.06 µg/mL; MIC, Klebsiella pneumoniae Y-1062 [7]: 0.12 µg/mL (≈ 0.159 µM); MIC, Pseudomonas aeruginosa ATCC 27853 [8]: 0.25 µg/mL (≈ 0.332 µM); MIC, Pseudomonas aeruginosa S-3779 [9]: 0.25 µg/mL (≈ 0.332 µM) |
| CC(C)(O/N=C(\C(=O)N[C@@H]1C(=O)N2C[C@@](C(=O)O)(N3CCN(NC(=O)C(=O)c4ccc(O)c(O)c4Cl)C3=O)S[C@H]12)c1csc(N)n1)C(=O)O [Example 20, (3R,5R,6R)-6-((Z)-2-(2-aminothiazol-4-yl)-2-(((2-carboxypropan-2-yl)oxy)imino)acetamido)-3-(3-(2-(2-chloro-3,4-dihydroxyphenyl)-2-oxoacetamido)-2-oxoimidazolidin-1-yl)-7-oxo-4-thia-1-azabicyclo[3.2.0]heptane-3-carboxylate] | ≥ 90% | – |
| Nc1nc(/C(=N/OC2(C(=O)O)CC2)C(=O)N[C@@H]2C(=O)N3C[C@@](C(=O)O)(N4CCN(NC(=O)C(=O)c5ccc(O)c(O)c5Cl)C4=O)S[C@H]23)cs1 [Example 21, (3R,5R,6R)-6-((Z)-2-(2-aminothiazol-4-yl)-2-((1-carboxycyclopropoxy)imino)acetamido)-3-(3-(2-(2-chloro-3,4-dihydroxyphenyl)-2-oxoacetamido)-2-oxoimidazolidin-1-yl)-7-oxo-4-thia-1-azabicyclo[3.2.0]heptane-3-carboxylate] | ≥ 90% | – |
| CC(C)(O/N=C(\C(=O)N[C@@H]1C(=O)N2C[C@@](C(=O)O)(N3CCN(NC(=O)C(=O)c4ccc(O)c(O)c4Cl)C3=O)S[C@H]12)c1nc(N)sc1Cl)C(=O)O [Example 22, (3R,5R,6R)-6-((Z)-2-(2-amino-5-chlorothiazol-4-yl)-2-(((2-carboxypropan-2-yl)oxy)imino)acetamido)-3-(3-(2(2-chloro-3,4-dihydroxyphenyl)-2-oxoacetamido)-2-oxoimidazolidin-1-yl)-7-oxo-4-thia-1-azabicyclo[3.2.0]heptane-3-carboxylate] | ≥ 90% | – |
| CC(C)(O/N=C(\C(=O)N[C@@H]1C(=O)N2C[C@@](C(=O)O)(N3CCN(NC(=O)C(=O)c4ccc(O)c(O)c4Cl)C3=O)S[C@H]12)c1nsc(N)n1)C(=O)O [Example 23, (3R,5R,6R)-6-((Z)-2-(5-amino-1,2,4-thiadiazol-3-yl)-2-(((2-carboxypropan-2-yl)oxy)imino)acetamido)-3-(3-(2-(2-chloro-3,4-dihydroxyphenyl)-2-oxoacetamido)-2-oxoimidazolidin-1-yl)-7-oxo-4-thia-1-azabicyclo[3.2.0]heptane-3-carboxylate] | ≥ 90% | – |
| Nc1nc(/C(=N/OC2(C(=O)O)CC2)C(=O)N[C@@H]2C(=O)N3C[C@@](C(=O)O)(N4CCN(NC(=O)CCNC(=O)C(=O)c5ccc(O)c(O)c5Cl)C4=O)S[C@H]23)cs1 [Example 31, (3R,5R,6R)-6-((Z)-2-(2-aminothiazol-4-yl)-2-((1-carboxycyclopropoxy)imino)acetamido)-3-(3-(3-(2-(2-chloro-3,4-dihydroxyphenyl)-2-oxoacetamido)propanamido)-2-oxoimidazolidin-1-yl)-7-oxo-4-thia-1-azabicyclo[3.2.0]heptane-3-carboxylate] | ≥ 90% | – |
| CC(C)(O/N=C(\C(=O)N[C@@H]1C(=O)N2C[C@@](C(=O)O)(N3CCN(NC(=O)c4cc(Cl)c(O)c(O)c4Cl)C3=O)S[C@H]12)c1csc(N)n1)C(=O)O [Example 83, (3R,5R,6R)-6-((Z)-2-(2-aminothiazol-4-yl)-2-(((2-carboxypropan-2-yl)oxy)imino)acetamido)-3-(3-(2,5-dichloro-3,4-dihydroxybenzamido)-2-oxoimidazolidin-1-yl)-7-oxo-4-thia-1-azabicyclo[3.2.0]heptane-3-carboxylate] | ≥ 90% | – |
| CC[C@H](O/N=C(\C(=O)N[C@@H]1C(=O)N2C[C@@](C(=O)O)(N3CCN(NC(=O)C(=O)c4ccc(O)c(O)c4Cl)C3=O)S[C@H]12)c1csc(N)n1)C(=O)O [Example 105, (3R,5R,6R)-6-((Z)-2-(2-aminothiazol-4-yl)-2-(((S)-1-carboxypropoxy)imino)acetamido)-3-(3-(2-(2-chloro-3,4-dihydroxyphenyl)-2-oxoacetamido)-2-oxoimidazolidin-1-yl)-7-oxo-4-thia-1-azabicyclo[3.2.0]heptane-3-carboxylate] | ≥ 90% | – |
| CC(C)[C@H](O/N=C(\C(=O)N[C@@H]1C(=O)N2C[C@@](C(=O)O)(N3CCN(NC(=O)C(=O)c4ccc(O)c(O)c4Cl)C3=O)S[C@H]12)c1csc(N)n1)C(=O)O [Example 114, (3R,5R,6R)-6-((Z)-2-(2-aminothiazol-4-yl)-2-(((S)-1-carboxy-2-methylpropoxy)imino)acetamido)-3-(3-(2-(2-chloro-3,4-dihydroxyphenyl)-2-oxoacetamido)-2-oxoimidazolidin-1-yl)-7-oxo-4-thia-1-azabicyclo[3.2.0]heptane-3-carboxylate] | ≥ 90% | – |
| CC(C)(O/N=C(\C(=O)N[C@@H]1C(=O)N2C[C@@](C(=O)O)(N3CCN(NC(=O)/C(=N\O)c4ccc(O)c(O)c4Cl)C3=O)S[C@H]12)c1csc(N)n1)C(=O)O [Example 117, (3R,5R,6R)-6-((Z)-2-(2-aminothiazol-4-yl)-2-(((2-carboxypropan-2-yl)oxy)imino)acetamido)-3-(3-((Z)-2-(2-chloro-3,4-dihydroxyphenyl)-2-(hydroxyimino)acetamido)-2-oxoimidazolidin-1-yl)-7-oxo-4-thia-1-azabicyclo[3.2.0]heptane-3-carboxylate] | ≥ 90% | – |
| CC(C)(O/N=C(\C(=O)N[C@@H]1C(=O)N2C[C@@](C(=O)O)(N3CCN(NC(=O)CCNC(=O)/C(=N\O)c4ccc(O)c(O)c4Cl)C3=O)S[C@H]12)c1csc(N)n1)C(=O)O [Example 122, (3R,5R,6R)-6-((Z)-2-(2-aminothiazol-4-yl)-2-(((2-carboxypropan-2-yl)oxy)imino)acetamido)-3-(3-(3-((Z)-2-(2-chloro-3,4-dihydroxyphenyl)-2-(hydroxyimino)acetamido)propanamido)-2-oxoimidazolidin-1-yl)-7-oxo-4-thia-1-azabicyclo[3.2.0]heptane-3-carboxylate] | ≥ 90% | – |
| CC(C)(O/N=C(\C(=O)N[C@@H]1C(=O)N2C[C@@](C(=O)O)(N3CCN(NC(=O)C(=O)c4ccc(O)c(O)c4Cl)C(=O)C3=O)S[C@H]12)c1csc(N)n1)C(=O)O [Example 126, (3R,5R,6R)-6-((Z)-2-(2-aminothiazol-4-yl)-2-(((2-carboxypropan-2-yl)oxy)imino)acetamido)-3-(4-(2-(2-chloro-3,4-dihydroxyphenyl)-2-oxoacetamido)-2,3-dioxopiperazin-1-yl)-7-oxo-4-thia-1-azabicyclo[3.2.0]heptane-3-carboxylate] | ≥ 90% | – |
| COC[C@@H](NC(=O)C(=O)c1ccc(O)c(O)c1Cl)C(=O)NN1CCN([C@]2(C(=O)O)CN3C(=O)[C@@H](NC(=O)/C(=N\OC(C)(C)C(=O)O)c4csc(N)n4)[C@H]3S2)C1=O [Example 139, (3R,5R,6R)-6-((Z)-2-(2-aminothiazol-4-yl)-2-(((2-carboxypropan-2-yl)oxy)imino)acetamido)-3-(3-((R)-2-(2-(2-chloro-3,4-dihydroxyphenyl)-2-oxoacetamido)-3-methoxypropanamido)-2-oxoimidazolidin-1-yl)-7-oxo-4-thia-1-azabicyclo[3.2.0]heptane-3-carboxylate] | ≥ 90% | – |
